Source: US6716829B2, “Aldosterone antagonist and cyclooxygenase-2 inhibitor combination therapy to prevent or treat inflammation-related cardiovascular disorders” (Pharmacia Corporation, priority 2000, dated 2004)
Several values for one entry are separate records, joined by “and”; a condition that tells them apart may be missing. Identical values can stand only once.

How the values were obtained:
[1] = Assay C: body weight, left and right ventricle weight, tibia length (myocardial hypertrophy); format: in vivo, Male Sprague-Dawley rats; settings: for Body weight: aldosterone + salt at days 7, 14 and 30 vs vehicle + salt, eplerenone effect at day 30; for Ventricular hypertrophy (absolute ventricular weights, ventricular weight to tibia length ratios): 7 to 30 days
Experimental: The procedure of Assay B was expanded upon in a further study. […] Myocardial tissue from animals in each treatment group was examined after 7, 14, or 30 days of treatment.
Male Sprague-Dawley rats, weighing 230 to 250 g, (Harlan Sprague-Dawley Industries, Indianapolis, IN) were housed in a room 12-hours light/12-hours dark daily cycle at an ambient temperature of 22±1° C. (n=96). Animals were allowed one week to adjust after arrival and had free access to TEKLAD 22/5 rodent diet (Harlan TEKLAD, Madison, Wis.) and tap water until the initiation of the experiment.
Potassium chloride supplementation was added to the saline solution in order to prevent the potential hypokalemia associated with aldosterone excess.
At the time of the surgery, an Alzet 2002 osmotic minipump (Alza Corp., Palo Alto, Calif.) containing either vehicle (9% ethanol/87% propylene glycol/4% dH2O) or 1.0 mg/mL d-aldosterone (Sigma Chemical, St. Louis, Mo.) was inserted subcutaneously at the nape of the neck. Aldosterone was administered at a dose of 0.75 µg/hour. […] Animals were sacrificed from each group (n=8-13) after 7, 14, or 30 days of treatment.
Animals to be sacrificed after 7 or 14 days of treatment were uninephrectomized and implanted with an Alzet minipump. Animals treated for 30 days were uninephrectomized, fitted for Alzet minipumps, and implanted with radio telemetry units (model #TA11PA-C40, Data Sciences Inc., St. Paul, Minn.) according to the following procedure. Animals were anesthetized with 5% isoflurane (SOLVAY Animal Health Inc., Mendota Heights, Minn.), which was delivered in O2 using a VMS anesthesia instrument (Matrix Medical, Inc., Orchard Park, N.Y.). Anesthesia was maintained with 1-2% isoflurane throughout the surgical procedure. The surgery site was clipped, scrubbed with nolvasan, and sprayed with betadine. A rostral-caudal incision was made through the skin from the base of the rib cage to the pubic region using a #11 scalpel blade. A second incision was made through the muscles of the abdominal wall to expose the peritoneal cavity. The […], renal artery and vein of the left kidney were isolated, tied off with 4-0 silk, and the kidney excised and discarded. Organs were carefully displaced with tissue retractors in order to expose the abdominal aorta. A 1.5 cm segment just rostral to the bifurcation of the abdominal aorta into the iliac arteries was cleared of excessive connective tissue and 4-0 silk was used to make an anchor adjacent to the aorta. A microvascular clip was then placed at both ends of the cleaned region to stop excessive blood flow. Using a bent, 21 gauge needle, the abdominal aorta was penetrated. The cannula of the radio telemetry unit was inserted and stabilized in the aorta using the 4-0 silk anchor. Organs were repositioned and the telemetry unit was placed over the organs. Using a non-interrupted suture pattern with 4-0 silk, the abdominal wall was closed, and the skin was subsequently closed using a 4-0 silk in an interrupted suture pattern. Animals were injected around the sutures with 100 μL of the anesthetic Marcaine HCl (Sanofi Winthrop Pharmaceuticals, New York, N.Y.) and given an injection (i.m.) of the antibiotic Mandol (Eli Lilly & Co., Indianapolis, Ind.). Post-operative care included monitoring the animals on a heating pad during recovery from anesthesia until sternal recumbency was reestablished. Animals were monitored daily for signs of distress and infection at the surgical site. Animals displaying continued discomfort after surgery were treated with 0.1-0.5 mg/kg, s.c. Buphrenorphine (Rickett & Colman Pharmaceuticals, Inc. Richmond, Va.). Animals were then placed on tap water and TEKLAD 22/5 rodent diet (Harlan TEKLAD, Madison, Wis.).

osteopontin [2] = assay: Assay A: immunostaining of hearts with osteopontin-specific antibody; format: in vivo, Male Wistar rats; settings: angiotensin II-infused, saline-drinking rats; eplerenone 100 mpk; aldosterone replacement in adrenalectomized rats
Text: Osteopontin (also known as early T-cell activation-1, Eta-1) is a secreted glycoprotein with pro-inflammatory characteristics that mediates chemoattraction, activation and migration of monocytes.

osteopontin [3] = assay: Assay B: osteopontin immunohistochemistry in the heart; format: in vivo, Male Sprague Dawley rats; settings: aldosterone-infused rats, eplerenone 100 mpk, increased dietary potassium group
Experimental: Assay B: In Vivo Aldosterone Infusion Model Male Sprague Dawley rats (n=39; BW=250 g) 2. Aldosterone (0.75 mg/hr, sc via alzet minipump) 2. […] Determination of osteopontin and COX-2 was performed by quantitative RT-PCR (Taqman). Osteopontin was also identified in the heart by immunohistochemistry.

[4] = 14-day protocol, individual rats and group Mean, listed as Aldosterone + salt
[5] = 14-day protocol, individual rats and group Mean, listed as Aldosterone + salt, mean
[6] = 30-day protocol, individual rats and group Mean, listed as Aldosterone + salt
[7] = 30-day protocol, individual rats and group Mean, listed as Aldosterone + salt, group mean
[8] = aldosterone + salt, eplerenone 100 mg/kg/day
[9] = mean ± SEM after 7 days of treatment, aldosterone + salt, eplerenone 100 mg/kg/day
[10] = mean ± SEM after 14 days of treatment, aldosterone + salt, eplerenone 100 mg/kg/day
[11] = mean ± SEM after 30 days of treatment, eplerenone dose 100 mg/kg/day
[12] = 14-day protocol, individual rats and group Mean, listed as Eplerenone + aldosterone + salt
[13] = 14-day protocol, individual rats and group Mean, listed as Eplerenone + aldosterone + salt, mean
[14] = individual rats and group mean, 7 days of treatment, aldosterone + salt, eplerenone 100 mg/kg/day
[15] = individual rats and group mean, 7 days of treatment, aldosterone + salt, eplerenone 100 mg/kg/day, group mean

Structure (SMILES)	Body weight [1]	Ventricular hypertrophy (absolute ventricular weights, ventricular weight to tibia length ratios) [1, 8]	Final Body Weight [1, 9] [g]	Left Ventricle Weight [1, 9] [mg]	Left Ventricle Weight/ Tibia Length [1, 9] [mg/cm]	Right Ventricle Weight [1, 9] [mg]	Right Ventricle Weight/ Tibia Length [1, 9] [mg/cm]	Final Body Weight [1, 10] [g]	Left Ventricle Weight [1, 10] [mg]	Left Ventricle Weight/ Tibia Length [1, 10] [mg/cm]	Right Ventricle Weight [1, 10] [mg]	Right Ventricle Weight/ Tibia Length [1, 10] [mg/cm]	Left Ventricle Weight [1, 11] [mg]	Left Ventricle Weight/ Tibia Length [1, 11] [mg/cm]	Right Ventricle Weight [1, 11] [mg]	Right Ventricle Weight/ Tibia Length [1, 11] [mg/cm]	Osteopontin expression in the heart (immunostaining) (osteopontin [2])	Osteopontin expression in the heart (immunostaining) (osteopontin [3])	further results
C[C@]12CCC(=O)C=C1CC[C@@H]1[C@@H]2[C@@H](O)C[C@]2(C=O)[C@@H](C(=O)CO)CC[C@@H]12 [Aldosterone]	significantly lower	Significant left and right ventricular hypertrophy	277 ± 5	736 ± 25	194 ± 6	183 ± 7	48 ± 2	270 ± 11	817 ± 22	214 ± 5	189 ± 5	50 ± 1	910 ± 29	233 ± 7	192 ± 8	49 ± 2	restored osteopontin expression	clearly identified in the media of coronary arteries	Left Ventricle Weight [1, 4]: 846 mg and 784 mg and 912 mg and 720 mg and 923 mg and 854 mg and 894 mg and 859 mg and 750 mg and 818 mg and 746 mg and 700 mg; Left Ventricle Weight/ Tibia Length [1, 4]: 223 mg/cm and 206 mg/cm and 234 mg/cm and 189 mg/cm and 237 mg/cm and 225 mg/cm and 229 mg/cm and 220 mg/cm and 197 mg/cm and 215 mg/cm and 202 mg/cm and 194 mg/cm; Right Ventricle Weight [1, 4]: 194 mg and 189 mg and 208 mg and 174 mg and 217 mg and 186 mg and 216 mg and 171 mg and 153 mg and 195 mg and 172 mg; Right Ventricle Weight/ Tibia Length [1, 4]: 51 mg/cm and 50 mg/cm and 53 mg/cm (3×) and 56 mg/cm and 49 mg/cm and 55 mg/cm and 44 mg/cm and 40 mg/cm and 48 mg/cm; Left Ventricle Weight [1, 5]: 817 mg; Left Ventricle Weight/ Tibia Length [1, 5]: 214 mg/cm; Right Ventricle Weight [1, 5]: 189 mg; Right Ventricle Weight/ Tibia Length [1, 5]: 50 mg/cm; Left Ventricle Weight [1, 6]: 934 mg and 726 mg and 963 mg and 942 mg and 1030 mg and 837 mg and 962 mg and 873 mg and 919 mg; Left Ventricle Weight/ Tibia Length [1, 6]: 234 mg/cm and 191 mg/cm and 247 mg/cm (2×) and 242 mg/cm (2×) and 264 mg/cm and 215 mg/cm and 218 mg/cm; Right Ventricle Weight [1, 6]: 196 mg and 148 mg and 215 mg and 176 mg and 224 mg and 173 mg and 220 mg and 187 mg and 185 mg; Right Ventricle Weight/ Tibia Length [1, 6]: 49 mg/cm (2×) and 39 mg/cm and 55 mg/cm and 45 mg/cm and 57 mg/cm and 44 mg/cm and 56 mg/cm and 47 mg/cm; Left Ventricle Weight [1, 7]: 910 mg; Left Ventricle Weight/ Tibia Length [1, 7]: 233 mg/cm; Right Ventricle Weight [1, 7]: 192 mg; Right Ventricle Weight/ Tibia Length [1, 7]: 49 mg/cm; Final Body Weight [1, 11]: 272 ± 10 g
COC(=O)[C@@H]1CC2=CC(=O)CC[C@]2(C)[C@@]23O[C@@H]2C[C@@]2(C)[C@@H](CC[C@@]24CCC(=O)O4)[C@H]13 [Eplerenone]	significantly attenuated	did not impact	287 ± 4	714 ± 20	188 ± 5	182 ± 5	48 ± 1	283 ± 6	813 ± 22	214 ± 6	197 ± 19	52 ± 5	936 ± 34	240 ± 9	198 ± 6	51 ± 2	prevented osteopontin expression	prevented the expression of osteopontin	Left Ventricle Weight [1, 12]: 804 mg and 898 mg and 789 mg and 851 mg and 668 mg and 833 mg and 886 mg and 756 mg and 751 mg and 795 mg and 915 mg; Left Ventricle Weight/ Tibia Length [1, 12]: 212 mg/cm and 236 mg/cm and 221 mg/cm and 176 mg/cm and 225 mg/cm and 233 mg/cm and 199 mg/cm and 198 mg/cm and 215 mg/cm and 235 mg/cm; Right Ventricle Weight [1, 12]: 182 mg and 188 mg (2×) and 176 mg and 189 mg and 139 mg and 371 mg and 193 mg and 158 mg and 155 mg and 225 mg; Right Ventricle Weight/ Tibia Length [1, 12]: 48 mg/cm and 49 mg/cm (3×) and 46 mg/cm and 37 mg/cm and 100 mg/cm and 51 mg/cm and 42 mg/cm (2×) and 58 mg/cm; Left Ventricle Weight [1, 13]: 813 mg; Left Ventricle Weight/ Tibia Length [1, 13]: 214 mg/cm; Right Ventricle Weight [1, 13]: 197 mg; Right Ventricle Weight/ Tibia Length [1, 13]: 52 mg/cm; Left Ventricle Weight [1, 14]: 859 mg and 712 mg and 618 mg and 658 mg and 754 mg and 733 mg and 726 mg and 696 mg and 700 mg and 688 mg; Left Ventricle Weight/ Tibia Length [1, 14]: 220 mg/cm and 187 mg/cm and 167 mg/cm and 173 mg/cm and 198 mg/cm and 193 mg/cm and 191 mg/cm and 183 mg/cm and 184 mg/cm and 181 mg/cm; Right Ventricle Weight [1, 14]: 216 mg and 181 mg (2×) and 154 mg and 174 mg and 192 mg and 171 mg and 190 mg and 170 mg and 187 mg; Right Ventricle Weight/ Tibia Length [1, 14]: 55 mg/cm and 48 mg/cm (2×) and 42 mg/cm and 46 mg/cm and 51 mg/cm and 45 mg/cm (2×) and 50 mg/cm and 49 mg/cm; Left Ventricle Weight [1, 15]: 714 mg; Left Ventricle Weight/ Tibia Length [1, 15]: 188 mg/cm; Right Ventricle Weight [1, 15]: 182 mg; Right Ventricle Weight/ Tibia Length [1, 15]: 48 mg/cm; Final Body Weight (g) [1, 11]: 331 ± 7^# g; Osteopontin expression in the heart (immunostaining) (osteopontin [3]; listed as eplerenone): prevention
